Source: ChEMBL document CHEMBL1127045 (J Med Chem, 1993)

Tests used:
D(2) dopamine receptor = D(2) dopamine receptor (Rattus norvegicus, UniProt P61169); assay: Binding affinity against dopamine receptor D2 from rat corpus striatum by using radioligand [3H]sulpiride
[1] = biological target: 5-HT2A receptor (Rattus norvegicus); assay: Binding affinity against 5-hydroxytryptamine 2 receptor from rat cortical synaptosomal membrane using radioligand [3H]ketanserin.
[2] = biological target: Serotonin 2 (5-HT2) receptor (Mus musculus) (UniProt Q02152+P34968+P35363); assay: Effective dose through peroral route for in vivo inhibition against 5-hydroxytryptamine 2 receptor in male CF-1 mice by using radioligand [3H]ketanserin; format: organism-based
Chain of Serotonin 2 (5-HT2) receptor (Mus musculus) (P34968 whole entry, looked up): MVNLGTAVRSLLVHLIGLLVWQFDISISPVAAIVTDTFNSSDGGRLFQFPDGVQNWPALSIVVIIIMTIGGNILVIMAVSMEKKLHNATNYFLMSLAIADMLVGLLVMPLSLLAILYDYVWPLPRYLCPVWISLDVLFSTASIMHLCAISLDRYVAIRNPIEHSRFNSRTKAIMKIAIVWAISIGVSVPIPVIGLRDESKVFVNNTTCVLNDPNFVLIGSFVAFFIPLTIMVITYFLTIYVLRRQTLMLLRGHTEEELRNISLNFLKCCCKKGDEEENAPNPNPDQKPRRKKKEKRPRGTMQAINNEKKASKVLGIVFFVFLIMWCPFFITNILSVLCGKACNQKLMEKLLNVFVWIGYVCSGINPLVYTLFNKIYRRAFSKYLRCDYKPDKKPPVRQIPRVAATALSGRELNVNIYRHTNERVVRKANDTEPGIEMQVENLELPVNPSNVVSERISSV
Chain of Serotonin 2 (5-HT2) receptor (Mus musculus) (P35363 whole entry, looked up): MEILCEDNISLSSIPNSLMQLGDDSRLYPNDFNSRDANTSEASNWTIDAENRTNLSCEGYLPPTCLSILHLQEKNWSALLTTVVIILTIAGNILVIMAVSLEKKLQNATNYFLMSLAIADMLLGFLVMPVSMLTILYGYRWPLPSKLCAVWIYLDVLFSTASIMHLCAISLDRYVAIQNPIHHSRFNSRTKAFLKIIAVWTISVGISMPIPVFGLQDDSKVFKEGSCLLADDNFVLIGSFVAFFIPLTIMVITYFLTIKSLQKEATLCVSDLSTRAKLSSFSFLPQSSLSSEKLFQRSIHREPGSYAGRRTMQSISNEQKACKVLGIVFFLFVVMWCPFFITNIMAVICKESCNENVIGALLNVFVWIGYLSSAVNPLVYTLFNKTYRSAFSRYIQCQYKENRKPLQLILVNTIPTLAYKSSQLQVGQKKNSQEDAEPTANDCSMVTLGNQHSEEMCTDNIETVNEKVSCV
Chain of Serotonin 2 (5-HT2) receptor (Mus musculus) (Q02152 whole entry, looked up): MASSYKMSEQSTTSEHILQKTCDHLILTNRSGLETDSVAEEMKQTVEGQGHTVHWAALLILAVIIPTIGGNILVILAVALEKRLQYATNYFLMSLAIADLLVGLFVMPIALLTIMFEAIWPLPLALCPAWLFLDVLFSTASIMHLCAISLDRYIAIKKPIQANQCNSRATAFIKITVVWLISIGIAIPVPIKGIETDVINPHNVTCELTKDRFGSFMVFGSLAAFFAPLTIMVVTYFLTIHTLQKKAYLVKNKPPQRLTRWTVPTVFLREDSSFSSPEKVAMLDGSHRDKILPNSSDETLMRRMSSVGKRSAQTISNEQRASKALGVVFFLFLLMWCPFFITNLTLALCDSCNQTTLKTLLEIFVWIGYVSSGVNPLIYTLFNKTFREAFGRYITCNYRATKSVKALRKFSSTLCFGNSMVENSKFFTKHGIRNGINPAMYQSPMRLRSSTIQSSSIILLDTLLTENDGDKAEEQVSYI

Chain of D(2) dopamine receptor (P61169 whole entry): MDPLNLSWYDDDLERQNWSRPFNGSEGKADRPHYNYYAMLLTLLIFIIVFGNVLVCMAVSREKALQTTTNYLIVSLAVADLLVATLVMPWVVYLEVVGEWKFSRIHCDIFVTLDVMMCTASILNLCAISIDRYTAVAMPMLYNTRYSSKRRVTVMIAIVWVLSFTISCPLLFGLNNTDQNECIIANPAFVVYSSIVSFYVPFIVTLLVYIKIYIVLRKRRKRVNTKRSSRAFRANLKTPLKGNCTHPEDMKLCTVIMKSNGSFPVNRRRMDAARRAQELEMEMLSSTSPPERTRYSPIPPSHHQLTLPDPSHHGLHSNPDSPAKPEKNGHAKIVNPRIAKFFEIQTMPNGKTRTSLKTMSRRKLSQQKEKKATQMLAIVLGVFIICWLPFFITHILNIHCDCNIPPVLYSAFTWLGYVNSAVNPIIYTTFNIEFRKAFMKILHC

Row | Structure (SMILES) | Ki (D(2) dopamine receptor) [nM] | Ki [1] [nM] | ED50 [2] [mg/kg] | inhibition [2] [%]
1 | c1ccc2c(c1)ccn2CCCCN1C2CCC1c1c([nH]c3ccccc13)C2 (stereo unspecified) | 635 | 284 |  | 
2 | Cc1nc2sccn2c(=O)c1CCN1CCC(=C(c2ccc(F)cc2)c2ccc(F)cc2)CC1 [RITANSERIN] | 93 |  | 0.14 | 
3 | Cn1c2c(c3ccccc31)C1CCC(C2)N1CCCC(=O)c1ccc(F)cc1 (stereo unspecified) | 287 | 2.83 |  | 
4 | O=C(CCCN1C2CCCC1c1c([nH]c3ccc(F)cc13)C2)c1ccc(F)cc1 (stereo unspecified) |  |  | 5.89 | 
5 | O=C(CCCCN1C2CCC1c1c([nH]c3ccccc13)C2)c1ccc(F)cc1 (stereo unspecified) |  |  | 7.32 | 
6 | O=C(CCCN1C2CCC1c1c([nH]c3ccc(F)cc13)C2)c1ccc(F)cc1 (stereo unspecified) |  |  | 41.1 | 
7 | c1ccc2c(CCCCN3C4CCC3c3c([nH]c5ccccc35)C4)c[nH]c2c1 (stereo unspecified) | 853 | 329 |  | 
8 | O=C(CCCN1C2CCC1c1c(n(-c3ccccc3)c3ccccc13)C2)c1ccc(F)cc1 (stereo unspecified) |  | 330 |  | 
9 | O=C1CC2CCC(C1)N2CCCC(=O)c1ccc(F)cc1 | 1.3 | 533 |  | 
10 | O=C(CCCCN1C2CCC1c1c([nH]c3ccc(F)cc13)C2)c1ccc(F)cc1 (stereo unspecified) | 34.1 |  |  | 
11 | O=C(CCCN1C2CCC1c1c([nH]c3ccc(F)cc13)C2)c1ccco1 (stereo unspecified) | 643 | 264 |  | 
12 | O=C1c2ccccc2C(=O)N1CCCCN1C2CCC1c1c([nH]c3ccccc13)C2 (stereo unspecified) | 2630 | 879 |  | 
13 | O=C(CCCN1C2CCC1c1c([nH]c3ccccc13)C2)c1ccccc1 (stereo unspecified) | 540 | 6.55 |  | 12
14 | O=C(CCCCN1C2CCC1c1c([nH]c3ccc(F)cc13)C2)c1ccccc1 (stereo unspecified) | 2.77 | 2.98 | 0.65 | 
15 | c1ccc2c3c([nH]c2c1)CC1CCC3N1 (stereo unspecified) | > 10000 |  |  | 
16 | Fc1ccc2c(CCCCN3C4CCCC3c3c([nH]c5cccc(F)c35)C4)noc2c1 (stereo unspecified) | 131 | 133 |  | 
17 | O=C(CCCN1C2CCC1c1c([nH]c3ccccc13)C2)c1cccs1 (stereo unspecified) | 550 |  |  | 
18 | O=C(CCCCN1C2CCCC1c1c([nH]c3ccc(F)cc13)C2)c1ccccc1 (stereo unspecified) | 72 | 59.8 |  | 
19 | c1ccc(CCCCN2C3CCCC2c2c([nH]c4ccccc24)C3)cc1 (stereo unspecified) | 670 | 103 |  | 
20 | Fc1ccc2[nH]c3c(c2c1)C1CCCC(C3)N1CCCCc1ccccc1 (stereo unspecified) |  | 172 |  | 
21 | Fc1ccc(CCCCN2C3CCCC2c2c([nH]c4ccc(F)cc24)C3)cc1 (stereo unspecified) | 1960 | 143 |  | 
22 | O=C(CCCN1C2CCCC1c1c([nH]c3ccccc13)C2)c1ccc(F)cc1 (stereo unspecified) |  | 0.85 | 16.3 | 
23 | O=C(CCCN1C2CCC1c1c([nH]c3ccccc13)C2)c1ccc(F)cc1 (stereo unspecified) | 275 |  | 20.9 | 
24 | Fc1ccc2c(CCCN3C4CCCC3c3c([nH]c5ccc(F)cc35)C4)noc2c1 (stereo unspecified) | 248 | 13.4 |  | 
25 | c1ccc2sc(CCCCN3C4CCC3c3c([nH]c5ccccc35)C4)cc2c1 (stereo unspecified) | 416 | 610 |  | 
26 | Fc1ccc(CCCCN2C3CCCC2c2c([nH]c4ccccc24)C3)cc1 (stereo unspecified) | 973 | 24.5 |  | 
27 | c1ccc2c(CCCN3C4CCC3c3c([nH]c5ccccc35)C4)c[nH]c2c1 (stereo unspecified) | 1160 |  |  | 
28 | O=S1(=O)c2cccc3cccc(c23)N1CCCCN1C2CCC1c1c([nH]c3ccc(F)cc13)C2 (stereo unspecified) | 1010 | 1245 |  | 
29 | O=C(CCCCN1C2CCCC1c1c([nH]c3ccccc13)C2)c1ccccc1 (stereo unspecified) | 43.5 | 20.9 |  | 
